pIC50: −log10 of the molar value.
Assays:
Format in all cases: cell-based
[1] = test system: Target C CJ mRNA; test: Gene panel canonical junction qPCR assay, Target C; conditions: protocol of Example 42, read-out: Target C IC50 (decrease in CJ mRNA levels)
In short: (§1)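 A673 or K562 cells treated 24 h at 37° C with 11-point 3-fold dilutions (top 10 uM, DMSO ≤0.25%). Canonical junction mRNA quantified by RT-qPCR, normalized to GAPDH, GUSB or PPIA and DMSO control (2^(−ΔΔCt)). 4-parameter logistic fit gives IC50 for CJ decrease.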

[2] = test system: HTT mRNA canonical junction (CJ); test: Splicing RT-qPCR assay, decrease of HTT canonical junction (CJ) mRNA; conditions: A673 or K562 cells, 24 hours compound treatment, concentration having 50% response in CJ decrease
In short: (§2)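 A673 (DMEM, 10% FBS) or K562 (IMDM, 10% FBS) cells exposed 24 h at 37 °C to an 11-point 3-fold series, top dose 10 uM final, DMSO ≤0.25%. Lysates assayed by RT-qPCR for HTT CJ and AJ, normalized to GAPDH, GUSB or PPIA and DMSO control via 2^(−ΔΔCt).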

[3] = test system: SMN2 CJ mRNA; test: Gene panel canonical junction qPCR assay, SMN2; conditions: protocol of Example 42, read-out: SMN2 IC50 (decrease in CJ mRNA levels)
In short: as §1

[4] = test system: HTT CJ mRNA; test: Gene panel canonical junction qPCR assay, HTT; conditions: protocol of Example 42, read-out: HTT IC50 (decrease in CJ mRNA levels)
In short: as §1

[5] = test system: HTT mRNA alternative junction (AJ); test: Splicing RT-qPCR assay, increase of HTT alternative junction (AJ) mRNA; conditions: A673 or K562 cells, 24 hours compound treatment, concentration having 50% response in AJ increase
In short: as §2

Cc1cn2cc(NC(=O)c3ccc(N4CCN5CCCC5C4)c4cn(C)nc34)cc(F)c2n1 (centres unmarked) [Compound 250]
pIC50 [1]: 5.00 to 6.00
AC50 [2]: 100 to 1000 nM
pIC50 [3]: > 7.00
pIC50 [4]: 6.00 to 7.00
AC50 [5]: 100 to 1000 nM

Cc1cn2cc(NC(=O)c3ccc(N4CCC(N(C)C)CC4)c4cn(C)nc34)cc(C)c2n1 [Compound 251]
pIC50 [1]: 5.00 to 6.00
AC50 [2]: 100 to 1000 nM
pIC50 [3]: > 7.00
pIC50 [4]: 6.00 to 7.00
AC50 [5]: 100 to 1000 nM

CCNC1CCN(c2ccc(C(=O)Nc3cc(F)c4nc(C)cn4c3)c3nn(C)cc23)CC1 [Compound 252]
pIC50 [1]: 6.00 to 7.00
AC50 [2]: 100 to 1000 nM
pIC50 [3]: > 7.00
pIC50 [4]: 6.00 to 7.00
AC50 [5]: 100 to 1000 nM

Cc1cn2nc(NC(=O)c3ccc(N4CCNCC4)c4nn(C)cc34)nc2c(C)n1 [Compound 253]
pIC50 [1]: < 5.00
AC50 [2]: > 10000 nM
pIC50 [3]: 5.00 to 6.00
pIC50 [4]: < 5.00
AC50 [5]: > 10000 nM

Cc1cn2cc(NC(=O)c3ccc(N4C[C@H]5CC[C@@H](C4)N5)c4cc(C)oc34)cc(F)c2n1 [Compound 255]
pIC50 [1]: < 5.00
AC50 [2]: 1000 to 10000 nM
pIC50 [3]: > 7.00
pIC50 [4]: 5.00 to 6.00
AC50 [5]: 1000 to 10000 nM

Cc1cn2cc(NC(=O)c3ccc(C4CCN(C)CC4)c4cc(C)oc34)cc(F)c2n1 [Compound 256, N-[8-fluoro-2-methylimidazo[1,2-a]pyridin-6-yl]-2-methyl-4-(1-methylpiperidin-4-yl)-1-benzofuran-7-carboxamide]
pIC50 [1]: < 5.00
AC50 [2]: 1000 to 10000 nM
pIC50 [3]: > 7.00
pIC50 [4]: 5.00 to 6.00
AC50 [5]: 1000 to 10000 nM

CCN1CCC(c2ccc(C(=O)Nc3cc(F)c4nc(C)cn4c3)c3oc(C)cc23)CC1 [Compound 257, 4-(1-ethylpiperidin-4-yl)-N-[8-fluoro-2-methylimidazo[1,2-a]pyridin-6-yl]-2-methyl-1-benzofuran-7-carboxamide]
pIC50 [1]: < 5.00
AC50 [2]: 1000 to 10000 nM
pIC50 [3]: > 7.00
pIC50 [4]: 5.00 to 6.00
AC50 [5]: 1000 to 10000 nM

Cc1cn2cc(NC(=O)c3ccc(N4CCC(N(C)C)C4)c4cn(C)nc34)cc(F)c2n1 (centres unmarked) [Compound 258]
pIC50 [1]: 5.00 to 6.00
AC50 [2]: 1000 to 10000 nM
pIC50 [3]: > 7.00
pIC50 [4]: 5.00 to 6.00
AC50 [5]: 100 to 1000 nM

Cc1cn2cc(NC(=O)c3ccc(N4CCC(NC(C)(C)C)CC4)c4cn(C)nc34)cc(F)c2n1 [Compound 259]
pIC50 [1]: 5.00 to 6.00
AC50 [2]: 1000 to 10000 nM
pIC50 [3]: > 7.00
pIC50 [4]: 5.00 to 6.00
AC50 [5]: 1000 to 10000 nM

Cc1cn2cc(NC(=O)c3ccc(N4C[C@H]5CC[C@@H](C4)N5)c4cn(C)nc34)cc(F)c2n1 [Compound 260]
pIC50 [1]: < 5.00
AC50 [2]: 100 to 1000 nM
pIC50 [3]: > 7.00
pIC50 [4]: 6.00 to 7.00
AC50 [5]: 100 to 1000 nM

Cc1cc2c(N3CCNCC3)ccc(C(=O)Nc3ccc4cn(C)nc4c3)c2o1 [Compound 261, 2-methyl-N-(2-methylindazol-6-yl)-4-(piperazin-1-yl)-1-benzofuran-7-carboxamide]
pIC50 [1]: < 5.00
AC50 [2]: 1000 to 10000 nM
pIC50 [3]: 5.00 to 6.00
pIC50 [4]: 5.00 to 6.00
AC50 [5]: 1000 to 10000 nM

Cc1cn2cc(NC(=O)c3ccc(N4CCNCC4)c4cc(C)oc34)c(C)cc2n1 [Compound 262]
pIC50 [1]: < 5.00
AC50 [2]: > 10000 nM
pIC50 [3]: > 7.00
pIC50 [4]: < 5.00
AC50 [5]: > 10000 nM

Cc1cn2cc(NC(=O)c3ccc(N4CCNCC4)c4cc(C)oc34)ncc2n1 [Compound 263]
pIC50 [1]: 5.00 to 6.00
AC50 [2]: 1000 to 10000 nM
pIC50 [3]: > 7.00
pIC50 [4]: 5.00 to 6.00
AC50 [5]: 1000 to 10000 nM

Cc1cn2nc(NC(=O)c3ccc(N4CCNCC4)c4cc(C)oc34)nc2c(C)n1 [Compound 264]
pIC50 [1]: < 5.00
AC50 [2]: > 10000 nM
pIC50 [3]: < 5.00
pIC50 [4]: < 5.00
AC50 [5]: > 10000 nM

Cc1cn2nc(NC(=O)c3ccc(N4CCNCC4)c4cc(C)oc34)cc2c(C)n1 [Compound 265]
pIC50 [1]: < 5.00
AC50 [2]: > 10000 nM
pIC50 [3]: 5.00 to 6.00
pIC50 [4]: < 5.00
AC50 [5]: > 10000 nM

Cc1cn2cc(NC(=O)c3ccc(N4CCNCC4)c4cc(C)oc34)cc(Cl)c2n1 [Compound 266]
pIC50 [1]: < 5.00
AC50 [2]: 1000 to 10000 nM
pIC50 [3]: > 7.00
pIC50 [4]: 5.00 to 6.00
AC50 [5]: 1000 to 10000 nM

Reference: patent publication US20230365566A1, “HETEROCYCLIC AMIDES AND THEIR USE FOR MODULATING SPLICING” (REMIX THERAPEUTICS INC., priority 2020, published 2023)
